Results as given in PubChem BioAssay (NCI).
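Briefly, cells in 96-well plates were exposed to five compound concentrations for 48 h, and endpoints were estimated by linear interpolation. TGI is the concentration that stops growth completely.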

Experiments:
Assay in all cases: NCI anticancer screen, dose series, 48 h
A498 renal = system: A498 renal
CCRF-CEM leukemia = system: CCRF-CEM leukemia
COLO 205 colon = system: COLO 205 colon
EKVX NSCLC = system: EKVX NSCLC
HCT-15 colon = system: HCT-15 colon
HT29 colon = system: HT29 colon
KM12 colon = system: KM12 colon
LOX IMVI melanoma = system: LOX IMVI melanoma
M14 melanoma = system: M14 melanoma
MCF7 breast = system: MCF7 breast
MDA-MB-435 = system: MDA-MB-435
MDA-N = system: MDA-N
NCI-H460 lung = system: NCI-H460 lung
RPMI-8226 leukemia = system: RPMI-8226 leukemia
SF-295 CNS = system: SF-295 CNS
SK-OV-3 ovarian = system: SK-OV-3 ovarian
T-47D breast = system: T-47D breast
UO-31 renal = system: UO-31 renal

Structure (SMILES)	TGI (A498 renal)	TGI (CCRF-CEM leukemia)	TGI (COLO 205 colon)	TGI (EKVX NSCLC)	TGI (HCT-15 colon)	TGI (HT29 colon)	TGI (KM12 colon)	TGI (LOX IMVI melanoma)	TGI (M14 melanoma)	TGI (MCF7 breast)	TGI (MDA-MB-435)	TGI (MDA-N)	TGI (NCI-H460 lung)	TGI (RPMI-8226 leukemia)	TGI (SF-295 CNS)	TGI (SK-OV-3 ovarian)	TGI (T-47D breast)	TGI (UO-31 renal)
O=c1ccc2nc3ccc(O)cc3oc-2c1	> 100 µM	> 100 µM	24.9 µM	> 100 µM	> 100 µM	> 75.9 µM	> 62.7 µM	7.86 µM	19.5 µM	> 52.7 µM	3.23 µM	3.43 µM	> 100 µM	30.8 µM	> 100 µM	> 100 µM	> 100 µM	> 100 µM
CCOC(=O)c1c[nH]c2cc3c(cc2c1=O)CCS3	> 100 µM	> 100 µM	> 100 µM	> 100 µM	> 100 µM	> 100 µM	> 100 µM	> 100 µM	> 100 µM	> 100 µM	> 100 µM	> 100 µM	> 100 µM	> 100 µM	> 100 µM	> 100 µM	> 100 µM	> 100 µM
NNC(=O)CSc1nnc(CCCCCCCCc2nnc(SCC(=O)NN)o2)o1	> 100 µM	> 100 µM	> 100 µM	> 100 µM	> 100 µM	> 100 µM	> 100 µM	> 100 µM	> 100 µM	> 100 µM	> 100 µM	> 100 µM	> 100 µM	> 100 µM	> 100 µM	> 100 µM	> 100 µM	> 100 µM
N#CCCN(CCC#N)c1ccc(/C=C2\N=C(c3ccccc3)N(c3ccccc3)C2=O)cc1	> 100 µM	> 100 µM	> 100 µM	> 100 µM	> 100 µM	> 100 µM	> 100 µM	> 100 µM	> 100 µM	> 100 µM	> 100 µM	> 100 µM	> 100 µM	> 100 µM	> 100 µM	> 100 µM	> 100 µM	> 100 µM
CCCNC(=O)c1cc(NC(=O)c2cc(NC(=O)CCS(=O)(=O)OC)cn2C)cn1C	> 100 µM	3.67 µM	22.7 µM	> 100 µM	> 100 µM	> 56.9 µM	> 61.5 µM	43.6 µM	> 76.7 µM	> 100 µM	68.8 µM	> 69.8 µM	> 100 µM	> 100 µM	> 100 µM	22.8 µM	42.1 µM	> 100 µM
C[C@]12CC[C@H]3[C@@H](CCC4=CC(=O)CC[C@@]43C)[C@@H]1CC[C@@H]2OC(=O)c1cccc2c(=O)c3ccccc3[nH]c12	> 100 µM	> 100 µM	> 100 µM	> 100 µM	> 100 µM	> 100 µM	> 100 µM	62.1 µM	> 100 µM	> 100 µM	> 100 µM	> 100 µM	> 100 µM	87.7 µM	> 100 µM	> 100 µM	> 100 µM	> 100 µM
COc1ccccc1NC1=NCC(C)S1 (stereo unspecified)	> 100 µM	> 100 µM	> 100 µM	> 100 µM	> 100 µM	> 100 µM	> 100 µM	> 100 µM	> 100 µM	> 100 µM	> 100 µM	> 100 µM	> 100 µM	> 100 µM	> 100 µM	> 100 µM	> 100 µM	> 100 µM
